Laboratory results from PMC11352258, “The Influence of Betulin and Its Derivatives on Selected Colorectal Cancer Cell Lines’ Viability and Their Antioxidant Systems” (Cells, 2024).
Several values for one entry are separate records, joined by “and”; a condition that tells them apart may be missing. Equal values may be shown once.

What was measured:
RKO cells = test: MTT cytotoxicity assay, RKO; settings: Homo sapiens, 24 h, read-out: IC50 value
Method: (§1) Six colorectal cancer cell lines, RKO, HT29, DLD-1, HCT116, Caco2 and SW1116 (CRL-2577, HTB-38, CCL-221, CCL-247, HTB-37, CCL-233; ATCC, Manassas, VA, USA, respectively, for CRC lines), and one normal cell line, CCD-841CoN (CRL-1790, ATCC, USA), were routinely cultured at 37 °C in a 5% CO2 incubator (Direct Heat CO2; Thermo Scientific, Waltham, MA, USA) in cell line-appropriate culture medium according to the manufacturer’s recommendations. Eagle’s minimum essential medium (EMEM) was used to culture RKO, Caco2 and CCD-841CoN lines, while McCoy’s 5A medium was used for HT29 and HCT116 lines. DLD-1 cells were grown in RPMI-1640 medium, whereas SW1116 cells were maintained in Leibovitz’s L-15 medium. All culture media were supplemented with 10% fetal bovine serum (EuroClone, Milan, Italy), and gentamycin at the concentration […] (BioWhittaker, Lonza, Basel, Switzerland) was also applied to prevent culture contamination.
(§2) For this purpose, cells were exposed to the test compound for 24 h at concentrations of 0.1, 1, 10, 20, 50 and 100 μg/mL. Control cells were not treated with the compounds. MTT (0.25 mg/mL) was then added to the cultures and incubated for 3 h at 37 °C. After a time, the cells were washed with phosphate buffered saline (PBS), and next, formazan dye was dissolved in 100 μL of dimethyl sulfoxide (Sigma-Aldrich, St Louis, MO, USA). Absorbance was measured at 540 nm using a Wallac 1420 VICTOR microplate reader (PerkinElmer, Waltham, MA, USA).

HT29 cells = test: MTT cytotoxicity assay, HT29; assay type: cell-based; settings: Homo sapiens, HT-29, 24 h, read-out: IC50 value
Source text: (§3) Control cells were not treated with the compounds.

DLD-1 cells = test: MTT cytotoxicity assay, DLD-1; assay type: cell-based; settings: Homo sapiens, DLD-1, 24 h, read-out: IC50 value
Source text: as §3

HCT116 cells = test: MTT cytotoxicity assay, HCT116; assay type: cell-based; settings: Homo sapiens, HCT-116, 24 h, read-out: IC50 value
Source text: as §3

Caco2 cells = test: MTT cytotoxicity assay, Caco2; assay type: cell-based; settings: Homo sapiens, Caco-2, 24 h, read-out: IC50 value
SW1116 cells = test: MTT cytotoxicity assay, SW1116; settings: for IC50: Homo sapiens, SW 1116, 24 h, read-out: IC50 value
Method: as §1, §2

[1] = tested on: colorectal cancer cell lines RKO, HT29, DLD-1, HCT116, Caco2 and SW1116; test: MTT cytotoxicity assay, statements over all tested cell lines
Method: as §1, §2

CCD-841CoN cells = test: cells; assay type: cell-based; settings: Homo sapiens, CCD-841CoN, 24 h, read-out: IC50 value
Source text: as §3

Compound	IC50 (RKO cells)	IC50 (HT29 cells)	IC50 (DLD-1 cells)	IC50 (HCT116 cells)	IC50 (Caco2 cells)	IC50 (SW1116 cells)	cytotoxic effect compared with the other tested compounds ([1]; MTT, 24 h)	selectivity towards cancer cells ([1]; cancer lines vs normal cells)	change in cell viability ([1]; each of the tested cell lines, concentrations higher than 1 µg/mL)	sensitivity of cells to the compound (SW1116 cells; SW1116, 10 µg/mL, in comparison with other CRC lines and normal colonocytes)	IC50 (CCD-841CoN cells)
C#CC(=O)OC[C@]12CC[C@@H](/C(C)=C/P(=O)(OCC)OCC)C1C1CCC3[C@@]4(C)CC[C@H](O)C(C)(C)C4CC[C@@]3(C)[C@]1(C)CC2 (some centres unmarked) [ECH147, 29-diethoxyphosphoryl-28-propynylobetulin]	1.18 µg/mL and 2.04 µM	0.63 µg/mL and 1.09 µM	0.69 µg/mL and 1.19 µM	3.24 µg/mL and 5.59 µM	1.4 µg/mL and 2.43 µM	5.21 µg/mL and 8.99 µM	strongest cytotoxic effect	does not show selectivity towards cancer cells	significant decrease in cell viability		
C=C(C)[C@@H]1CC[C@]2(COC(=O)c3cn(CP(=O)(OCC)OCC)nn3)CC[C@]3(C)C(CCC4[C@@]5(C)CC[C@H](O)C(C)(C)C5CC[C@]43C)C12 (some centres unmarked) [TR50]	4.33 µg/mL and 6.29 µM	10.3 µg/mL and 14.9 µM	7.87 µg/mL and 11.4 µM	6.71 µg/mL and 9.76 µM	13 µg/mL and 18.9 µM	33.1 µg/mL and 48.1 µM				lack of sensitivity	18.3 µg/mL and 26.6 µM
